Source: patent publication US10376499B2, “Combination therapy for treatment of resistant bacterial infections” (priority 2014, dated 2019)

Key:
[1] = system: A. baumannii; assay: MIC by broth microdilution (CLSI), panel of 60 A. baumannii clinical isolates (Example 1); details: Acinetobacter baumannii
[2] = system: Escherichia coli; assay: MIC, recent Enterobacteriaceae clinical isolates: Escherichia coli (Examples 7, 11)
[3] = system: Citrobacter spp; assay: MIC, recent Enterobacteriaceae clinical isolates: Citrobacter spp (Examples 7, 11); assay type: cell-based
[4] = system: A. baumannii; assay: MIC90 of common antibiotics+compound 1, 196 contemporary clinical isolates of A. baumannii (Example 4); details: B-lactam + Cmpd 1 (4 μg/mL)
[5] = system: Klebsiella pneumoniae; assay: MIC, recent Enterobacteriaceae clinical isolates: Klebsiella pneumoniae (Examples 7, 11)

CC1(C)[C@H](C(=O)O)N2C(=O)C[C@H]2S1(=O)=O [Sulbactam, (2S,5R)-3,3-dimethyl-7-oxo-4-thia-1-azabicyclo[3.2.0]heptane-2-carboxylic acid 4,4-dioxide]
4 µg/mL: MIC ([1]; strain ARC5084, IMP-4(B), OXA-58, OXA-65)
16 µg/mL: MIC ([1]; strain ARC5083, OXA-66, OXA-23) | MIC ([1]; strain ARC5088, OXA-20, OXA-58, OXA-66)
> 256 µg/mL: MIC90 ([3]; Citrobacter) | MIC ([3]; Citrobacter freundii ARC3522, AmpC, TEM-1, CMY65) | MIC90 [5] | MIC ([5]; Klebsiella pneumoniae ARC4427, SHV-1, OXA-1) | MIC ([5]; Klebsiella pneumoniae ARC4451, SHV-11, KPC-3) | MIC ([5]; Klebsiella pneumoniae ARC4460, SHV-11, CTX-M15, OXA-1, NDM-1) | MIC ([5]; Klebsiella pneumoniae ARC4476, SHV-11, KPC-2, OXA-9[W117*])
128 µg/mL: MIC ([2]; Escherichia coli) | MIC ([2]; Escherichia coli ARC4471, CMY-2+, OXA-1+, TEM-1+) | MIC ([5]; Klebsiella pneumoniae ARC4420, SHV-11, SHV-12, DHA-1, OXA-1) | MIC ([5]; Klebsiella pneumoniae ARC4486, SHV-11, DHA-1, OXA-1[E69K])
32 µg/mL: MIC ([1]; strain ARC5085, OXA*, TEM-1) | MIC ([1]; strain ARC5086, OXA*, TEM-1, OXA-72, OXA-66) | MIC ([1]; strain ARC5087, OXA-66, OXA-23) | MIC ([1]; strain ARC5089, PER*, TEM-1, OXA-23, OXA-66) | MIC ([2]; Escherichia coli, Escherichia coli ARC4416, CTX-M-14+, TEM-1+) | MIC ([2]; Escherichia coli, Escherichia coli ARC4418, CTX-M-14+, CMY-2+) | MIC ([2]; Escherichia coli, Escherichia coli ARC4419, SHV-12+) | MIC ([2]; Escherichia coli, Escherichia coli ARC4426, TEM-1+, CMY-2+) | MIC ([2]; Escherichia coli, Escherichia coli ARC4436, CTX-M-14+, TEM-1+) | MIC ([2]; Escherichia coli, Escherichia coli ARC4452, SHV-12+) | MIC ([2]; Escherichia coli, Escherichia coli ARC4455, SHV-12+) | MIC ([2]; Escherichia coli, Escherichia coli ARC4465, CMY-2+) | MIC ([2]; Escherichia coli, Escherichia coli ARC4477, CTX-M-15+, TEM-1+) | MIC ([2]; Escherichia coli, Escherichia coli ARC4478, CTX-M-15+, CMY-2+) | MIC ([3]; Citrobacter braakii ARC3660, CTX-M-15) | MIC ([5]; Klebsiella pneumoniae ARC4482, SHV-27[A122V], OXA-1)
64 µg/mL: MIC ([1]; strain ARC5082, OXA-66, OXA-23) | MIC50 ([2]; Escherichia coli) | MIC90 ([2]; Escherichia coli) | MIC ([2]; Escherichia coli, ATCC25922, Escherichia coli ARC4, none (ATCC 25922) CLSI control) | MIC ([2]; Escherichia coli, Escherichia coli ARC4421, CTX-M-55, TEM-1+, CMY-2+) | MIC ([2]; Escherichia coli, Escherichia coli ARC4429, TEM-1+, CMY-2+) | MIC ([2]; Escherichia coli, Escherichia coli ARC4449, CMY-2+, TEM-1+) | MIC ([2]; Escherichia coli, Escherichia coli ARC4450, TEM-1+, OXA-1+, CMY-2+) | MIC ([2]; Escherichia coli, Escherichia coli ARC4472, CMY-2+, TEM-1+) | MIC ([2]; Escherichia coli, Escherichia coli ARC4479, CMY-42+, OXA-1+, OXA-9+, TEM-1+) | MIC ([2]; Escherichia coli, Escherichia coli ARC4485, CMY-2+, OXA-1+, CTX-M-15+) | MIC ([2]; Escherichia coli, Escherichia coli ARC4487, SHV-5+, DHA-1+, TEM-1+, OXA-1+, CMY-2+) | MIC ([3]; Citrobacter koseri ARC2001, ESBL) | MIC ([3]; Citrobacter koseri ARC2002, ESBL) | MIC50 [5] | MIC ([5]; Klebsiella pneumoniae ARC4457, SHV-11, DHA-1) | MIC ([5]; Klebsiella pneumoniae ARC4467, SHV-33, TEM-1, OXA-1, DHA-1) | MIC ([5]; Klebsiella pneumoniae ARC4468, SHV-1) | MIC ([5]; Klebsiella pneumoniae ARC4488, SHV-11, CTX-M15, OXA-1, TEM-1)
256 µg/mL: MIC50 ([3]; Citrobacter) | MIC ([3]; Citrobacter freundii ARC3883, KPC-2) | MIC ([3]; Citrobacter freundii ARC3884, KPC-2) | MIC ([3]; Citrobacter freundii ARC3885, AmpH, TEM-1, SHV-5, CMY-6, CMY-13) | MIC ([5]; Klebsiella pneumoniae ARC4490, SHV-11, CTX-M15, KPC-2, OXA-1)
2 µg/mL: MIC90 [4]
